ChEMBL document CHEMBL5244277, “A review upon medicinal perspective and designing rationale of DPP-4 inhibitors” (Bioorg Med Chem, 2021)
Blank lines part the entries; values can stand above or below the molecule they belong to.

Key:
Dipeptidyl peptidase 4 [1] = target: T1, Dipeptidyl peptidase 4 (Homo sapiens, UniProt P27487); assay: Inhibition of human recombinant DPP-4 at 100 uM using Gly-Pro-Aminomethylcoumarin as substrate by Spectra max fluorometer analysis relative to control
Target sequence in this assay (P27487 whole entry, looked up): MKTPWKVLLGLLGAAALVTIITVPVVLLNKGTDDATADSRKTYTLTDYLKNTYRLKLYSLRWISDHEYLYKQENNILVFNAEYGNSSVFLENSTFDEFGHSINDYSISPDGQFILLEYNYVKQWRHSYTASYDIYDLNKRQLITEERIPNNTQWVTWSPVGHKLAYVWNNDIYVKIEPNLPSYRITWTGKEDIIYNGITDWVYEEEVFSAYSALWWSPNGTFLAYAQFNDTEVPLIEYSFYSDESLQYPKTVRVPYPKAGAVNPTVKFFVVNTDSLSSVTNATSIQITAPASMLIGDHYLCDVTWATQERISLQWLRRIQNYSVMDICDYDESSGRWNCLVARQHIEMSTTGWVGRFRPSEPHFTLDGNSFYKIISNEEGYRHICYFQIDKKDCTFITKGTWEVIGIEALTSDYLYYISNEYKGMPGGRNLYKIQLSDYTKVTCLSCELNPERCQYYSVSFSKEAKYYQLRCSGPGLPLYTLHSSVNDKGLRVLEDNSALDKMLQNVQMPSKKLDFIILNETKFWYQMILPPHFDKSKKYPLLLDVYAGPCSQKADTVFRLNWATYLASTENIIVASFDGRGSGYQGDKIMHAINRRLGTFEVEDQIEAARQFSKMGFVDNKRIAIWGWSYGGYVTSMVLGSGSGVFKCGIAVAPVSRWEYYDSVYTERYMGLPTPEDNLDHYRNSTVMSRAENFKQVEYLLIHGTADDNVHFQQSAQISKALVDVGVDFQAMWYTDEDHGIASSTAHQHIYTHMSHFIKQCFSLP

[2] = AUC in C57BL/6J mouse at 20 mg/kg, po; assay type: ADME, organism-based; set-up: dose 20 mg/kg, route po; conditions: in vivo
[3] = Half life in ICR mouse at 15 mg/kg; assay type: ADME, organism-based; conditions: in vivo
[4] = Oral bioavailability in ICR mouse at 15 mg/kg; assay type: ADME, organism-based; conditions: in vivo
[5] = target: T2, Voltage-gated inwardly rectifying potassium channel KCNH2 (Homo sapiens, UniProt Q12809); assay: Inhibition of hERG channel by patch clamp assay; assay type: toxicity
[6] = target: T2, Voltage-gated inwardly rectifying potassium channel KCNH2; assay: Inhibition of hERG by thallium flux assay; assay type: toxicity
[7] = Blood glucose AUC in ICR mouse at 15 mg/kg; conditions: in vivo
Dipeptidyl peptidase 4 [8] = target: T1, Dipeptidyl peptidase 4; assay: Inhibition of DPP-4 (unknown origin) at 100 uM relative to control
Target sequence in this assay (P27487 whole entry, looked up): as above

Dipeptidyl peptidase 4 [9] = target: T1, Dipeptidyl peptidase 4
Target sequence in this assay (P27487 whole entry, looked up): as above

Rattus norvegicus [10] = assay: Antihyperglycemic activity in STZ-induced diabetic rat model assessed as reduction in blood glucose level at 100 mg/kg, po measured upto 24 hrs; assay type: functional; set-up: scale not given: the % may be the effect or the level left
[11] = Bioavailability in rat; assay type: ADME, organism-based; conditions: in vivo
[12] = Half life in mouse; assay type: ADME, organism-based; conditions: in vivo
Homo sapiens = species: Homo sapiens; assay: Selectivity index, ratio of IC50 for DPP-4 (unknown origin) to IC50 for DPP-8 (unknown origin)
Dipeptidyl peptidase 4 [13] = target: T1, Dipeptidyl peptidase 4; assay type: cell-based, Caco-2
Target sequence in this assay (P27487 whole entry): as the sequence (P27487 whole entry, looked up) above

Dipeptidyl peptidase 4 [14] = target: T1, Dipeptidyl peptidase 4; assay: Inhibition of DPP4 (unknown origin) using Gly-Pro-AMC as substrate incubated for 30 mins by spectroscopic analysis
Target sequence in this assay (P27487 whole entry): as the sequence (P27487 whole entry, looked up) above

Dipeptidyl peptidase 4 [15] = target: T1, Dipeptidyl peptidase 4; remark: listed apart in the source
Target sequence in this assay (P27487 whole entry): as the sequence (P27487 whole entry, looked up) above

Dipeptidyl peptidase 8 = Dipeptidyl peptidase 8 (Homo sapiens, UniProt Q6V1X1); assay: Inhibition of DPP-8 (unknown origin)
Dipeptidyl peptidase 9 = Dipeptidyl peptidase 9 (Homo sapiens, UniProt Q86TI2); assay: Inhibition of DPP-9 (unknown origin)
Rattus norvegicus [16] = assay: Anti-hyperglycemic activity in STZ-induced diabetic rat model assessed as improvement in glucose tolerance level at 30 mg/kg, po measured on day 15; assay type: functional
Rattus norvegicus [17] = assay: Anti-hyperglycemic activity in STZ-induced diabetic rat model assessed as improvement in glucose tolerance level at 30 mg/kg, po measured on day 10; assay type: functional; conditions: time 10 day
Mus musculus [18] = assay: Hypoglycemic activity in C57BL/6J mouse assessed as reduction in blood glucose level at 10 mg/kg, po measured at 20 to 80 mins by OGTT analysis; assay type: functional; set-up: scale not given: the % may be the effect or the level left; conditions: time 20-80 min
[19] = Aqueous stability in phosphate buffer at pH 7.4 assessed as half life; assay type: physicochemical
Mus musculus [20] = assay: Hypoglycemic activity in ICR mouse assessed as reduction in blood glucose level at 10 mg/kg; assay type: ADME, organism-based; set-up: scale not given: the % may be the effect or the level left; conditions: in vivo
Mus musculus [21] = assay: Hypoglycemic activity in ICR mouse assessed as reduction in blood glucose level at 3 mg/kg; assay type: ADME, organism-based; set-up: scale not given: the % may be the effect or the level left; conditions: in vivo

T2 sequence (Q12809 whole entry): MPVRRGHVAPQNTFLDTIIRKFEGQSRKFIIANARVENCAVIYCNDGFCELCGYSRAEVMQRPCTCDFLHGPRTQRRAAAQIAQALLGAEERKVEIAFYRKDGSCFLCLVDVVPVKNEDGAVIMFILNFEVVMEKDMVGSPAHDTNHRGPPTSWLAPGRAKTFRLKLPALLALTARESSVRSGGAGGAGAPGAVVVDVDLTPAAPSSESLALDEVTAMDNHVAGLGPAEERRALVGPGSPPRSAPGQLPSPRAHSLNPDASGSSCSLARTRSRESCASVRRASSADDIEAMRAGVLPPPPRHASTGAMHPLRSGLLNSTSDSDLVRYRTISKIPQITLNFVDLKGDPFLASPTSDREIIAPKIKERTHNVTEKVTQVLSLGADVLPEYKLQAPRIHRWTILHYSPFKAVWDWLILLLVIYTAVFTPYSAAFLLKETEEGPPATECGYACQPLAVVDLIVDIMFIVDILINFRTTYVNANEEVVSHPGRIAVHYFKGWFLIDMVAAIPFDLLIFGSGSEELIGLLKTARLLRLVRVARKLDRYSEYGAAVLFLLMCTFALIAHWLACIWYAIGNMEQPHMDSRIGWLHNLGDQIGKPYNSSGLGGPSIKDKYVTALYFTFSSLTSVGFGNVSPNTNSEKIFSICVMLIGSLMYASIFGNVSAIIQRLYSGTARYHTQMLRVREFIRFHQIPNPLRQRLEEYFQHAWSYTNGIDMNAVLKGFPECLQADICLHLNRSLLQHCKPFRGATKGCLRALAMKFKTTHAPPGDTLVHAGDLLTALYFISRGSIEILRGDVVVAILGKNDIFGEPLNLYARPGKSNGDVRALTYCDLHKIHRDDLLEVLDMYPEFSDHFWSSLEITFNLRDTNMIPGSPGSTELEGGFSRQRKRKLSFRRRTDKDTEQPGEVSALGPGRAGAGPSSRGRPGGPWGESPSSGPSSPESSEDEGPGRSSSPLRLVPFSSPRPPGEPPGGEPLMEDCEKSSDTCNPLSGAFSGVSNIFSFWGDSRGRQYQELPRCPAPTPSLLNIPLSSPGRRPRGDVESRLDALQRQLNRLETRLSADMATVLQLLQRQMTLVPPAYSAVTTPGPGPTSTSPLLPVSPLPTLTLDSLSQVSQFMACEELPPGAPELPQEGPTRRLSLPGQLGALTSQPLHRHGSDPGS
Dipeptidyl peptidase 8, sequence (Q6V1X1 whole entry): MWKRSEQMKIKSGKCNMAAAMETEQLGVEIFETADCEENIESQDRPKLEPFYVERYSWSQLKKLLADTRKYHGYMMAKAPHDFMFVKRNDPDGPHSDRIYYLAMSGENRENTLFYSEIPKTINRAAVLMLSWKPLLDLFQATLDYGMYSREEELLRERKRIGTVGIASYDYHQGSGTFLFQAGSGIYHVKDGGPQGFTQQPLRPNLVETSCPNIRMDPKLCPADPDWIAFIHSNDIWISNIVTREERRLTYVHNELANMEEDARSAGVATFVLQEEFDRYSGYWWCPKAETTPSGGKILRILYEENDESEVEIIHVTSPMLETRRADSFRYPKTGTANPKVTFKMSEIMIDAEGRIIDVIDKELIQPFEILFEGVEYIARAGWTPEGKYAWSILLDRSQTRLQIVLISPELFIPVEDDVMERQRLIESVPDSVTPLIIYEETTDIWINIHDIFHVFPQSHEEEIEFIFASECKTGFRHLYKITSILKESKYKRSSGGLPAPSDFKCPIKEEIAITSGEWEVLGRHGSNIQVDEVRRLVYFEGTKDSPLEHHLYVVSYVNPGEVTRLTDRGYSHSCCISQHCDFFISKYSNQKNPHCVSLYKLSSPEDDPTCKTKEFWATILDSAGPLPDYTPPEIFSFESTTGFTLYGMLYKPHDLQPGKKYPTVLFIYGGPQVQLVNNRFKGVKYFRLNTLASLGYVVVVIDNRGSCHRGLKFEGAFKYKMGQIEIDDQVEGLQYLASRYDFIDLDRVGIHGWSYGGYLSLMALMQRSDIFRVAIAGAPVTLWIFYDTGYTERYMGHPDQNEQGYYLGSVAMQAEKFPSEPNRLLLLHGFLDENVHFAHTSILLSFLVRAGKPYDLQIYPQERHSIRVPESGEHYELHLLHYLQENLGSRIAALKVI
Dipeptidyl peptidase 9, sequence (Q86TI2 whole entry): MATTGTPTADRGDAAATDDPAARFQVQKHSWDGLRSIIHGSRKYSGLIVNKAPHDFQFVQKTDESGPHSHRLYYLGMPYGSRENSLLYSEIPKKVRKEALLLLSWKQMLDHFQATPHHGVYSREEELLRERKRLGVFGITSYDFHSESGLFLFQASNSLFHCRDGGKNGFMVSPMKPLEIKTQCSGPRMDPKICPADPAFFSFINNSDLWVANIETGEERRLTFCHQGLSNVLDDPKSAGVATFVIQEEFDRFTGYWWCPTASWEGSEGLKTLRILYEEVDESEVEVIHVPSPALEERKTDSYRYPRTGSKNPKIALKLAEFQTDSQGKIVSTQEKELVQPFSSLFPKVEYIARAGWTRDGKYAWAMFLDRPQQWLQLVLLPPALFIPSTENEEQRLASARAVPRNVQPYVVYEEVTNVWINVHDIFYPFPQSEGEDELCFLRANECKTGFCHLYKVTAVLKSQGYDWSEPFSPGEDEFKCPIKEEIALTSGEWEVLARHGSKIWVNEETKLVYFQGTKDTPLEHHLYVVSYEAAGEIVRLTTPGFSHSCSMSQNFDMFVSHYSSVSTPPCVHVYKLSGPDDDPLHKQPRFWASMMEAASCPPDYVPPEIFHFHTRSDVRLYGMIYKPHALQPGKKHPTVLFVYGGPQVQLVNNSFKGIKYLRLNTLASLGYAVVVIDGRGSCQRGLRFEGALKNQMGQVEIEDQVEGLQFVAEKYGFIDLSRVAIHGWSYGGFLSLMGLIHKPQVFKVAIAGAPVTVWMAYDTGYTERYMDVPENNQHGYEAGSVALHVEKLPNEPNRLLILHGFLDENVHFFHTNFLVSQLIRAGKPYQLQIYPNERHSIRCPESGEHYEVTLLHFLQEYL

- AUC [2]: 54000 ng·h/mL
Compound: N#Cc1ccc(C(=O)NCCCC(=O)N2CCC[C@H]2C#N)cc1

- half-life [3]: 2.03 h
- bioavailability [4]: 53.2%
- glucose AUC [7]: 795 mmol/L/min
Compound: N#C[C@@H]1C[C@H](F)CN1C(=O)[C@@H](N)Cc1cc(Cl)c(Cl)cc1Cl
- IC50 [5]: > 40 µM
- IC50 [6]: 97.7 µM

- IC5 (Dipeptidyl peptidase 4 [9]): 0.00018 µM
- bioavailability [11]: 76%
Compound: Cl.N[C@@H](CC(=O)N1CCn2c(nnc2C(F)(F)F)[C@H]1c1ccc(F)cc1)Cc1cc(F)c(F)cc1F

- AUC [2]: 17400 ng·h/mL
Compound: N#C[C@@H]1CCCN1C(=O)CCCNC(=O)c1ccc(C(F)(F)F)cc1

- half-life [12]: < 24 h
- Ratio IC50 (Homo sapiens): > 1000
Compound: N#C[C@@H]1CCCN1C(=O)[C@@H](N)CCC(=O)N1CCn2nc(C(F)(F)F)nc2C1.O=C(O)C(F)(F)F

- IC50 (Dipeptidyl peptidase 4 [13]): 0.00087 µM
Compound: CCN(CC)S(=O)(=O)c1cc(C(=O)NC[C@@H]2CCCN2C(=O)C[C@H](N)[C@H]2CCc3cc(F)c(F)cc32)ccc1F

- half-life [12]: < 24 h
- Ratio IC50 (Homo sapiens): > 1000
Compound: N#C[C@@H]1CCCN1C(=O)[C@@H](N)CCC(=O)N1CCn2cnnc2C1

- IC50 (Dipeptidyl peptidase 4 [13]): 0.00087 µM
Compound: N[C@@H](CC(=O)N1CCC[C@H]1CNC(=O)c1cccnc1)[C@H]1CCc2cc(F)c(F)cc21

- half-life [12]: < 24 h
- Ratio IC50 (Homo sapiens): > 1000
Compound: N#C[C@@H]1CCCN1C(=O)[C@@H](N)CCC(=O)N1CCn2c(nnc2C(F)(F)F)C1.O=C(O)C(F)(F)F

- IC50 (Dipeptidyl peptidase 4 [13]): 0.00087 µM
Compound: CCN(CC)S(=O)(=O)c1cc(C(=O)NC[C@@H]2CCCN2C(=O)C[C@H](N)[C@H]2CCc3cc(F)c(F)cc32)c(F)cc1F

- half-life [19]: 168 h
Compound: CO[C@@H]1CCCN1C(=O)CC(C)(C)[C@H](N)C(=O)N1CCC[C@H]1C#N.O=C(O)C(F)(F)F

- Activity (Mus musculus [20]): 33.51%
- AUC [2]: 21500 ng·h/mL
- Activity (Mus musculus [21]): 33.48%
Compound: N#Cc1ccc(NCCNCC(=O)N2CCC[C@H]2C#N)nc1

- IC50 (Dipeptidyl peptidase 4 [13]): 0.00087 µM
Compound: N[C@@H](CC(=O)N1CCC[C@H]1CNC(=O)c1cc(S(=O)(=O)N2CCC2)c(F)cc1F)[C@H]1CCc2cc(F)c(F)cc21

- half-life [3]: 2.74 h
- bioavailability [4]: 22.8%
- glucose AUC [7]: 847 mmol/L/min
Compound: N#C[C@@H]1[C@@H]2CCC[C@@H]2CN1C(=O)[C@@H](N)Cc1cc(F)c(F)cc1F
- IC50 [5]: > 40 µM
- IC5 ([6]; human): 55.3 µM

The next lines start with the molecule.

Compound: COC(=O)c1ccc2cc(OCC(=O)Nc3ccc(C)cc3)c(=O)oc2c1
- inhibition (Dipeptidyl peptidase 4 [1]): 1.3%

Compound: COc1ccc(CCNC(=S)N/C=C2\C(=O)Oc3ccccc3C2=O)cc1OC
- inhibition (Dipeptidyl peptidase 4 [8]): > 50%

Compound: NNC1=NC(N2C(=O)CSC2=O)=NC(NN)N1 (configuration not stated)
- IC5 (Dipeptidyl peptidase 4 [9]): 6.25 µM

Compound: O=C(CN1CCN(c2ccccn2)CC1)N1CCSC1
- Activity (Rattus norvegicus [10]): 18.4%

Compound: COC(=O)C1=C(C)N=C2CC(C)C3(Oc4c(Cl)c(OC)cc(OC)c4C3=O)C(O)=C2C1c1cc2cccc3c2n(c1=O)CCC3 (configuration not stated)
- inhibition (Dipeptidyl peptidase 4 [8]): > 50%

Compound: CCOC(=O)c1ccc2cc(OCC(=O)N3CCCCC3)c(=O)oc2c1
- inhibition (Dipeptidyl peptidase 4 [1]): 1.3%

Compound: N#Cc1ccc(C2=NNc3nc(Br)nn3C2)cc1
- inhibition (Dipeptidyl peptidase 4 [8]): 48.3%

Compound: O=C([C@H]1CC[C@@H](n2cc(-c3ccc(-c4ccccc4)cc3)nn2)C1)N1CCC(F)(F)C1
- IC50 (Dipeptidyl peptidase 4 [14]): 0.66 µM

Compound: CO/N=C1\CN(c2nc3c(cc2F)c(=O)c(C(=O)O)cn3C2CC2)CC1CN (configuration not stated) [GEMIFLOXACIN]
- IC50 (Dipeptidyl peptidase 4 [15]): 2.7 µM

Compound: Cc1nc2cc(-c3ccccc3)nn2c(-c2ccc(Cl)cc2Cl)c1CO
- Ki (Dipeptidyl peptidase 8): > 30 µM
- Ki (Dipeptidyl peptidase 9): > 30 µM

Compound: O=C(CNc1cc2ccc3ccccc3c2oc1=O)Nc1ccc(F)cc1
- inhibition (Dipeptidyl peptidase 4 [1]): 26.7%

Compound: O=C(CN1CCN(c2cccc(Cl)c2)CC1)N1CCCCC1
- Activity (Rattus norvegicus [16]): 19.4%
- Activity (Rattus norvegicus [17]): 11.8%
- Activity (Rattus norvegicus [10]): 24.6%

Compound: CN1CCN(S(=O)(=O)c2cccc(C(=O)NC[C@@H]3CCCN3C(=O)C[C@H](N)[C@H]3CCc4cc(F)c(F)cc43)c2)CC1
- Activity (Mus musculus [18]): 34%
- IC50 (Dipeptidyl peptidase 4 [13]): 0.0011 µM

Compound: Cc1nc2cc(-c3ccccc3Cl)nn2c(-c2ccc(Cl)cc2Cl)c1CO
- Ki (Dipeptidyl peptidase 8): > 30 µM
- Ki (Dipeptidyl peptidase 9): > 30 µM
